# Results published in patent publication US5589486A, “N-hydroxyalkyl-substituted 1,2,3,6-tetrahydro-pyridine and piperidine derivatives” (Richter Gedeon Vegyeszeti Gyar Rt., priority 1991, dated 1996).
# Where two headings read alike, the source gives them in different places.
# What was measured:
# [1] = Acute toxicity study in mice; set-up: species or system mice (OF-1, either sex); conditions: mouse, in vivo, po, maximal dose 1000 mg/kg
# Method: OF-1 mice of either sex weighing 19-21 g were used. The test compound was administered through a catheter inserted into the stomach. A series of solutions was prepared, the concentrations were chosen to give a constant dosage volume of 0.1 ml/10 g. The observation time after the treatment was 72 hours. The LD50 value was calculated according to Litchfield and Wilcoxon from six dose responses (maximal dose 1000 mg/kg p.o., n=10).
# hypoxia = experiment: Antihypoxic effect, cytotoxic and hypobaric hypoxia tests taken together; assay type: in vivo, mice; spontaneously hypertensive (SH) rats; conditions: comparison of effects between tests, in words
# Method: (§1) Male CFLP mice (from the Hungarian stock LATI) weighing 24-26 g each and spontaneously hypertensive (SH) male rats weighing 160-180 g each, respectively were used in these investigations. The compounds to be tested were orally administered in a volume of 10 ml/kg one hour prior to starting the experiment.
# After a 1-hour pretreatment, the animals were intravenously injected with 5 mg/kg of potassium cyanide. Survival time was measured as an interval lasting from the administration of potassium cyanide to the last respiratory movement. In the groups consisting of 10 animals each treated with the compounds, the animals having a survival time longer by 30% than the average survival time of the placebo-treated group were considered to be protected. The ED50 values (i.e. the doses being effective in 50% of the animals) were calculated from the percentage of the surviving animals by using probit analysis.
# After a 16-hour starving and 1-hour pretreatment period, the animals were placed in a desiccator of 6 liters volume, where the pressure was decreased to 170 mmHg within 20 seconds. The survival time was registered from this time point up to the last respiratory movement of the animals. […] The ED50 values were calculated from the percentage of the animals protected by using probit analysis. […]
# [2] = system: cytotoxic hypoxia in mice; experiment: Cytotoxic hypoxia test (potassium cyanide i.v., survival time); assay type: in vivo, mice (male CFLP); conditions: in words
# [3] = system: hypobaric hypoxia in SH rats; experiment: Hypobaric hypoxia test (170 mmHg, survival time); assay type: in vivo, spontaneously hypertensive (SH) male rats; conditions: in words
# Method: as §1
# After a 16-hour starving and 1-hour pretreatment period, the animals were placed in a desiccator of 6 liters volume, where the pressure was decreased to 170 mmHg within 20 seconds. The survival time was registered from this time point up to the last respiratory movement of the animals. Animals having a survival time longer by 30% than the average survival time of the control group were considered to be protected. The ED50 values were calculated from the percentage of the animals protected by using probit analysis.
# Various forms of hypoxia were used for investigating the compounds. The functional disorganization and destruction of cells and death, respectively in otherwise healthy mice are caused by a decrease in the oxygen-saturation of haemoglobin in the hypobaric hypoxia and the inhibition of the mitochondrial respiratory enzyme in the cytotoxic hypoxia. Spontaneously hypertensive (SH) rats are more sensitive against hypoxic conditions than normotensive animals; similarly, patients suffering from hypertension have a less chance of survival after hypoxic injuries.
# [4] = 72 h observation, Litchfield and Wilcoxon, read-out: LD50
SMILES,"LD50 at 72 h [1, 4]",antihypoxic effect in the various tests of hypoxia (hypoxia),also measured
"OC(CN1CC=C(c2ccccc2)CC1)c1ccc(Cc2ccc(Cl)cc2)cc1 (stereo not shown) [A, 1-[4-(4-Chlorobenzyl)phenyl]-2-(4-phenyl-1,2,3,6-tetrahydro-1-pyridyl)ethanol]",> 1000 mg/kg,its effects are the same in the various tests of hypoxia,–
"OC(CCN1CCC(c2ccccc2)CC1)c1ccc(Cc2ccc(Cl)cc2)cc1 (stereo not shown) [B, 1-[4-(4-chlorobenzyl)phenyl]-3-(4-phenyl-1-piperidyl)propanol]",–,–,LD50 at 72 h [1]: 697 mg/kg
"OC(CCN1CC=C(c2ccc(Cl)cc2)CC1)c1ccc(Cl)cc1Cl (stereo not shown) [E, 3-[4-(4-Chlorophenyl)-1,2,3,6-tetrahydro-1-pyridyl]-1-(2,4-dichlorophenyl)propanol]",> 1000 mg/kg,–,–
"NC(=O)CN1CCCC1=O [Piracetam, 2-oxo-1-pyrrolidinylacetic acid amide, reference compound]",–,exerts its effect in the same two tests,–
"CC[C@]12CCCN3CCc4c(n(c5ccccc45)[C@@](O)(C(=O)OC)C1)[C@@H]32 [Vincamine, (+)-14β-hydroxy-14α-methoxycarbonyl-14,15-dihydroeburnamenine]",–,–,antihypoxic effect in cytotoxic hypoxia [2]: most pronounced in cytotoxic hypoxia; action in hypobaric hypoxia [3]: prominent tolerance-enhancing action in hypobaric hypoxia
